Data taken from patent US20250188075A1, “SUBSTITUTED HETEROCYCLIC CSNK1 INHIBITORS” (The Broad Institute, Inc., priority 2022, published 2025).

Columns and labels:
[1] = Solubility assay (thermodynamic solubility); type: physicochemical; details: aqueous buffer, 24 h
Description: Solubility of solid compound in aqueous buffer was determined by an equilibrium shake flask method. A saturated solution of drug in solvent (˜2 mg/ml solvent) was prepared and the solution was mixed for 24 h to ensure that equilibrium has been reached. The solution was centrifuged to remove the insoluble fraction and the concentration of the compound in solution was determined by HPLC-UV using a standard calibration curve (Kerns, E. H. et al., Solubility Methods in: Drug-like Properties: Concepts, Structure Design and Methods, p 276-286. Burlington, MA: Academic Press 2008).

[2] = molecular target: human Ether-a-go-go-Related Gene (hERG) potassium channel (Homo sapiens (Human), UniProt Q12809); test: hERG inhibition assay, automated voltage clamp; type: cell-based; details: HEK293 cells stably expressing hERG alpha subunit
Description: Following harvest, cells were transferred to the cell reservoir of a 384 channel automated patch clamp device and stored there at 20° C. until usage.
Upon start of the automated voltage clamp procedure, hERG cells were transferred to a 384 well patch clamp chip (pipette resistance of ˜[…] (2) prefilled with external solution (containing in mM: 143 NaCl, 4 KCl, 2 CaCl2), 1 MgCl2, 5 glucose, 10 HEPES; pH 7.4 (NaOH)). Underpressure was applied underneath the glass bottom of the patch clamp chip to position the hERG cells on the recording sites in the glass bottom of the chip. Following successful cell catch, underpressure was stopped and a seal enhancing solution (containing in mM: 78 NaCl, 60 NMDG, 4 KCl, 10 CaCl2), 1 MgCl2, 5 glucose, 10 HEPES; pH 7.4 (HCl)) was added to the hERG cells to facilitate the formation of stable seals between the membranes of the hERG cells and the glass next to the recording sites. Then, hERG cells were washed several times with wash solution (containing in mM: 87 NaCl, 60 NMDG, 4 KCl, 2 CaCl2), 1 MgCl2, 5 glucose, 10 HEPES; pH 7.4 (HCl)) to remove excess seal enhancing solution. In the meantime, the membrane parts of the hERG cells covering the recording sites were exposed to internal solution (containing in mM: 10 NaCl, 123 KF, 10 EGTA, 10 HEPES; pH 7.2 (KOH)) supplemented with 5-20 μM Escin, and the perforated patch configuration was established. Next, the holding potential was stepwise adjusted to −80 mV, capacitance was compensated, and a series of defined voltage commands was initiated to trigger the hERG current response from the hERG cells (−80 mV for 200 ms, +20 mV for 1000 ms, −40 mV for 500 ms; repeated at a frequency of 0.1 Hz). To determine whether the test item inhibits hERG, different solutions were sequentially applied to the hERG cells: First, a negative control (i.e. wash solution supplemented with 0.3% DMSO and 0.01% HSA) was applied for at least 3 min to investigate the basic electrophysiological properties of the hERG cells as well as define their standard current response. Next, a solution containing the test item at a final concentration of (0.1, 1, or 10) μM was applied for 10 min to measure eventual inhibitory effects of the test item on the hERG current (—the test item solution was produced from a 10 mM DMSO stock by using an automated pipetting device and sequential dilution). Finally, a positive control (i.e. wash solution supplemented with 0.3% DMSO, 0.01% HSA, and 10 μM quinidine) was added to the cells for ˜3 min to block the hERG current and, thereby, define the maximum inhibition. For data analysis, experimental results were processed using the automated patch clamp device-specific software as well as a custom-made software, and TIBCO Spotfire. For each successful recording, hERG tail current amplitudes were averaged from three consecutive current responses at the end of the negative control phase, test item phase, and positive control phase, respectively. Resulting mean hERG tail current amplitudes were normalized to the mean hERG tail current amplitude at the end of the negative control phase with nominal 0% inhibition as well as the hERG tail current amplitude at the end of the positive control phase with nominal 100% inhibition. Then, the effect of the test item was calculated as a percentage inhibition value at the test item concentration applied. Finally, percentage inhibition values from all successful recordings at a particular test item concentration were averaged and combined to construct a standard sigmoidal dose response curve, determine the half maximal inhibitory concentration (IC50) of the test item as well as extrapolate its IC20.

human Ether-a-go-go-Related Gene (hERG) potassium channel, sequence (Q12809 whole entry): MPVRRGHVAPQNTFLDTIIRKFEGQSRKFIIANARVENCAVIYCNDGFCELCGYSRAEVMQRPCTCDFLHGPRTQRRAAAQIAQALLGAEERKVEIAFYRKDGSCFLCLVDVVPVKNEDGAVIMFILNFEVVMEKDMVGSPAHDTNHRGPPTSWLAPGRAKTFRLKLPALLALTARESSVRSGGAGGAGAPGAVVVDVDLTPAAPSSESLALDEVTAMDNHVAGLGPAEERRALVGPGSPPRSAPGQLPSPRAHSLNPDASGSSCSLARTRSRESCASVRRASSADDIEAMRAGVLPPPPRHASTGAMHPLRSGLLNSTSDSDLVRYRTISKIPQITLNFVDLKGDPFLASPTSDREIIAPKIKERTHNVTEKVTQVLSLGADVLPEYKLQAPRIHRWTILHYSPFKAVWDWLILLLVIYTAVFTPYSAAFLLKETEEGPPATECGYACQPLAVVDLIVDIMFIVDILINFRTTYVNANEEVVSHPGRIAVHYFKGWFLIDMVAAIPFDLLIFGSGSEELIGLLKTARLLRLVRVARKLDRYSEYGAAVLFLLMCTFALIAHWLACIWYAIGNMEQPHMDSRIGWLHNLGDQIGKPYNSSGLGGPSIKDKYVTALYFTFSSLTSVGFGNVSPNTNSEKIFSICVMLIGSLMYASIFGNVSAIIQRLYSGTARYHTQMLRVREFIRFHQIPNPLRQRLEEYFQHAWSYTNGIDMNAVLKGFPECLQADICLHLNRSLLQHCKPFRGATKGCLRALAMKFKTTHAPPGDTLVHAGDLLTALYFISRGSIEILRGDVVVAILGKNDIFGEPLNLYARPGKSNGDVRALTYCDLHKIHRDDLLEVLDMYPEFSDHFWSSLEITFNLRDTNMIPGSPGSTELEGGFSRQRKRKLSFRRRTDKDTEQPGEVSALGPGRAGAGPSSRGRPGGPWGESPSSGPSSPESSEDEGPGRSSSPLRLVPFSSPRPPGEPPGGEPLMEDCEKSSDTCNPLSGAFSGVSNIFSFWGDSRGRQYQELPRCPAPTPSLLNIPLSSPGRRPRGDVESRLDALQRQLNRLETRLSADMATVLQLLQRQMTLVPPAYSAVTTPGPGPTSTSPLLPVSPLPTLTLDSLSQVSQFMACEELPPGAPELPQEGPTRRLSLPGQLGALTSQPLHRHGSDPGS

- Thermodynamic Solubility [mg/l] (mean) [1]: 2.35 mg/L
Compound: O=C(Cc1ccc(F)cc1)Nc1cc(-c2[nH]c3ccc(F)nc3c2-c2ccccn2)ccn1 [Example C4, reference compound]
- IC50 [2]: 1.16 µM
